Test system: HCT-116 Firefly-luciferase reporter cells
Test: Cellular c-MYC Reporter Assay
Type: cell-based
Conditions: Homo sapiens, HCT-116, 24 h, read-out: pIC50 (converted)
Summary of the method: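 Compound exposure lasted 24 h at 37 °C, 5% CO2, in complete McCoy's 5A medium containing 0.2% DMSO, beginning 4–6 h post-seeding (5e4 cells/mL). Firefly luciferase signal measured by luminescence after 10 min ONE-Glo development at room temperature.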

Question: For `Cc1cccc2ccnc(N(C(=O)c3ccc(-n4nnc5cccnc54)cc3)[C@@H]3CCCNCC3)c12` [Example 229, (R)-4-(3H-[1,2,3]triazolo[4,5-b]pyridin-3-yl)-N-(azepan-4-yl)-N-(8-methylisoquinolin-1-yl)benzamide], which IC50 is on record?
Answer: 15.1 µM

Same assay, conditions: Homo sapiens; untitled table following Table 8a; HCT-116 Firefly-luciferase reporter cells, 24 h; read-out: pIC50 (converted)

Question: `O=C(c1ccc(-n2nnc3cccnc32)cc1F)N(c1nccc2sc(Br)cc12)[C@@H]1CCCNC1` [Example 162, (R)-4-(3H-[1,2,3]triazolo[4,5-b]pyridin-3-yl)-N-(2-bromothieno[3,2-c]pyridin-4-yl)-2-fluoro-N-(piperidin-3-yl)benzamide] was tested. Which IC50 did it give?
Answer: 0.776 µM

Question: How did the IC50 turn out when `Cc1cccc2ccnc(N(C(=O)c3ccc(-n4nnc5cccnc54)cc3)[C@H]3CCCCNC3)c12` [Example 227, (S)-4-(3H-[1,2,3]triazolo[4,5-b]pyridin-3-yl)-N-(azepan-3-yl)-N-(8-methylisoquinolin-1-yl)benzamide] was run?
Answer: > 20 µM

Question: For `O=C(c1ncc(-n2nnc3cccnc32)cc1F)N(c1nccc2cccc(Cl)c12)[C@@H]1CCCNC1` [Example 200, (R)-5-(3H-[1,2,3]triazolo[4,5-b]pyridin-3-yl)-N-(8-chloroisoquinolin-1-yl)-3-fluoro-N-(piperidin-3-yl)picolinamide], which IC50 is on record?
Answer: 0.0776 µM

Question: How did the IC50 turn out when `Cc1cccc2ccnc(N(C(=O)N3CCCCC3C(=O)N(C)C)[C@@H]3CCCNC3)c12` (stereo partly drawn) [Example 258, N^2,N^2-dimethyl-N^1-(8-methylisoquinolin-1-yl)-N1-((R)-piperidin-3-yl)piperidine-1,2-dicarboxamide] was run?
Answer: 7.24 µM

Question: How did the IC50 turn out when `Cc1cccc2ccnc(N(C(=O)N3CCC(c4nn(C)c(=O)o4)CC3)[C@@H]3CCCNC3)c12` [Example 174, (R)-4-(4-methyl-5-oxo-4,5-dihydro-1,3,4-oxadiazol-2-yl)-N-(8 methylisoquinolin-1-yl)-N-(piperidin-3-yl)piperidine-1-carboxamide] was run?
Answer: 3.55 µM

Question: `O=C(c1ccc(-n2nnc3cccnc32)cc1F)N(c1nccc2cccc(/C=C/CCO)c12)[C@@H]1CCCNC1` [Example 166, (R,E)-4-(3H-[1,2,3]triazolo[4,5-b]pyridin-3-yl)-2-fluoro-N-(8-(4-hydroxybut-1-en-1-yl)isoquinolin-1-yl)-N-(piperidin-3-yl)benzamide] was tested. Which IC50 did it give?
Answer: 0.141 µM

Question: How did the IC50 turn out when `Cc1cc(C)c2c(N(C(=O)N3CCC(c4cc(C)no4)CC3)[C@@H]3CCCNC3)nccc2c1` [Example 278, (R)—N-(6,8-dimethylisoquinolin-1-yl)-4-(3-methylisoxazol-5-yl)-N-(piperidin-3-yl)piperidine-1-carboxamide] was run?
Answer: 0.49 µM

Question: How did the IC50 turn out when `Cc1cccc2ccnc(N(C(=O)c3ccc(Nc4nccc5cccnc45)cc3F)[C@@H]3CCCNC3)c12` [Example 276, (R)-4-((1,7-naphthyridin-8-yl)amino)-2-fluoro-N-(8-methylisoquinolin-1-yl)-N-(piperidin-3-yl)benzamide] was run?
Answer: 7.08 µM

Question: `Cc1cccc2ccnc(N(C(=O)c3ccc(Nc4ncccc4N)cc3F)[C@@H]3CCCNC3)c12` [Example 274, (R)-4-((3-aminopyridin-2-yl)amino)-2-fluoro-N-(8-methylisoquinolin-1-yl)-N-(piperidin-3-yl)benzamide] was tested. Which IC50 did it give?
Answer: 3.8 µM

Question: For `O=C(c1ccc(-n2nnc3cccnc32)cc1F)N(c1nccc2ccncc12)[C@@H]1CCCNC1` [Example 300, (R)-4-(3H-[1,2,3]triazolo[4,5-b]pyridin-3-yl)-2-fluoro-N-(2,7-naphthyridin-1-yl)-N-(piperidin-3-yl)benzamide], which IC50 is on record?
Answer: > 20 µM

Question: For `COc1ccc2nnn(-c3ccc(C(=O)N(c4nccc5cccc(C)c45)[C@@H]4CCCNC4)c(F)c3)c2n1` [Example 187, (R)-2-fluoro-4-(5-methoxy-3H-[1,2,3]triazolo[4,5-b]pyridin-3-yl)-N-(8-methylisoquinolin-1-yl)-N-(piperidin-3-yl)benzamide], which IC50 is on record?
Answer: 0.0501 µM

Question: For `Cc1cccc2ccnc(N(C(=O)c3cccc(Cn4ccnn4)c3F)[C@@H]3CCCNC3)c12` [Example 271, (R)-3-((1H-1,2,3-triazol-1-yl)methyl)-2-fluoro-N-(8-methylisoquinolin-1-yl)-N-(piperidin-3-yl)benzamide], which IC50 is on record?
Answer: 4.79 µM

Question: Which IC50 does the source give for `COC(=O)c1ccc2nnn(-c3ccc(C(=O)N(c4nccc5cccc(C)c45)[C@@H]4CCCNC4)c(F)c3)c2n1` [Example 140, methyl (R)-3-(3-fluoro-4-((8-methylisoquinolin-1-yl)(piperidin-3-yl)carbamoyl)phenyl)-3H-[1,2,3]triazolo[4,5-b]pyridine-5-carboxylate] here?
Answer: 0.24 µM

Question: For `Cc1cccc2ccnc(N(C(=O)N3CCC(n4ncc5ccccc54)CC3)[C@@H]3CCCNC3)c12` [Example 266, (R)-4-(1H-indazol-1-yl)-N-(8-methylisoquinolin-1-yl)-N-(piperidin-3-yl)piperidine-1-carboxamide], which IC50 is on record?
Answer: 2.95 µM

Question: `Cc1cccc2ccnc(N(C(=O)c3ccc(-n4nnc5ccc(C(F)(F)F)nc54)cc3F)[C@@H]3CCCNC3)c12` [Example 205, (R)-2-fluoro-N-(8-methylisoquinolin-1-yl)-N-(piperidin-3-yl)-4-(5-(trifluoromethyl)-3H-[1,2,3]triazolo[4,5-b]pyridin-3-yl)benzamide] was tested. Which IC50 did it give?
Answer: 0.17 µM

Question: Which IC50 does the source give for `CNC(=O)c1cccnc1N(C(=O)c1ccc(-n2nnc3cccnc32)cc1F)[C@@H]1CCCNC1` [Example 213, (R)-2-(4-(3H-[1,2,3]triazolo[4,5-b]pyridin-3-yl)-2-fluoro-N-(piperidin-3-yl)benzamido)-N-methylnicotinamide] here?
Answer: 0.646 µM

Question: For `CCOC(=O)/C=C/c1cccc2ccnc(N(C(=O)c3ccc(-c4cn(C)nn4)cc3)[C@@H]3CCCNC3)c12` [Example 100, ethyl (R,E)-3-(1-(4-(1-methyl-1H-1,2,3-triazol-4-yl)-N-(piperidin-3-yl)benzamido)isoquinolin-8-yl)acrylate], which IC50 is on record?
Answer: 1.17 µM

Question: With `Cc1cc(C)c2c(N(C(=O)c3ccc(-n4nnc5cccnc54)cc3F)[C@@H]3CCCNC3)nccc2c1` [Example 254, (R)-4-(3H-[1,2,3]triazolo[4,5-b]pyridin-3-yl)-N-(6,8-dimethylisoquinolin-1-yl)-2-fluoro-N-(piperidin-3-yl)benzamide] as the compound, how does the IC50 read?
Answer: 0.0617 µM

Question: Which IC50 does the source give for `Cc1cccc2ccnc(N(C(=O)c3ccc(-c4cnccn4)cc3)[C@@H]3CCCNC3)c12` [Example 238, (R)—N-(8-methylisoquinolin-1-yl)-N-(piperidin-3-yl)-4-(pyrazin-2-yl)benzamide] here?
Answer: 0.24 µM

Question: For `N#Cc1cccc2ccnc(N(C(=O)c3ccc(-n4nnc5cccnc54)cc3F)[C@@H]3CCCNC3)c12` [Example 164, (R)-4-(3H-[1,2,3]triazolo[4,5-b]pyridin-3-yl)-N-(8-cyanoisoquinolin-1-yl)-2-fluoro-N-(piperidin-3-yl)benzamide], which IC50 is on record?
Answer: 0.0977 µM

Question: `Cn1cc(-c2ccc(C(=O)N(c3ncccc3-c3cc[nH]n3)[C@@H]3CCCNC3)cc2)nn1` [Example 101, (R)—N-(3-(1H-pyrazol-3-yl)pyridin-2-yl)-4-(1-methyl-1H-1,2,3-triazol-4-yl)-N-(piperidin-3-yl)benzamide] was tested. Which IC50 did it give?
Answer: > 10 µM

Question: `C=C(C)c1cccnc1N(C(=O)c1ccc(-n2nnc3cccnc32)cc1F)[C@@H]1CCCNC1` [Example 108, (R)-4-(3H-[1,2,3]triazolo[4,5-b]pyridin-3-yl)-2-fluoro-N-(piperidin-3-yl)-N-(3-(prop-1-en-2-yl)pyridin-2-yl)benzamide] was tested. Which IC50 did it give?
Answer: 0.129 µM

Question: `Cc1cccc2ccnc(N(C(=O)N3CC=C(c4ccccc4OCc4ccccc4)CC3)[C@@H]3CCCNC3)c12` [Example 299, (R)-4-(2-(benzyloxy)phenyl)-N-(8-methylisoquinolin-1-yl)-N-(piperidin-3-yl)-3,6-dihydropyridine-1(2H)-carboxamide] was tested. Which IC50 did it give?
Answer: 5.5 µM

Question: With `NC(=O)CCc1ccc2ccnc(N(C(=O)c3ccc(-n4nnc5cccnc54)cc3F)[C@@H]3CCCNC3)c2c1` [Example 148, (R)-4-(3H-[1,2,3]triazolo[4,5-b]pyridin-3-yl)-N-(7-(3-amino-3-oxopropyl)isoquinolin-1-yl)-2-fluoro-N-(piperidin-3-yl)benzamide] as the compound, how does the IC50 read?
Answer: 13.8 µM

Question: `Cc1cc(-c2ccc(C(=O)N(c3nccc4ccn(C)c34)[C@@H]3CCCNC3)c(F)c2)on1` [Example 212, (R)-2-fluoro-N-(1-methyl-1H-pyrrolo[2,3-c]pyridin-7-yl)-4-(3-methylisoxazol-5-yl)-N-(piperidin-3-yl)benzamide] was tested. Which IC50 did it give?
Answer: 0.355 µM

Question: Which IC50 does the source give for `Cc1cccc2ccnc(N(C(=O)N3CCC(c4cc(C(N)=O)no4)CC3)[C@@H]3CCCNC3)c12` [Example 288, (R)-5-(1-((8-methylisoquinolin-1-yl)(piperidin-3-yl)carbamoyl)piperidin-4-yl)isoxazole-3-carboxamide] here?
Answer: 1.35 µM

Question: `CCOC(=O)/C=C/c1ccc2ccnc(N(C(=O)c3ccc(-n4nnc5cccnc54)cc3F)[C@@H]3CCCNC3)c2c1` [Example 130, ethyl (R,E)-3-(1-(4-(3H-[1,2,3]triazolo[4,5-b]pyridin-3-yl)-2-fluoro-N-(piperidin-3-yl)benzamido)isoquinolin-7-yl)acrylate] was tested. Which IC50 did it give?
Answer: 2.29 µM

Question: How did the IC50 turn out when `Cc1nccnc1-c1ccc(C(=O)N(c2nccc3cccc(C)c23)[C@@H]2CCCNC2)c(F)c1` [Example 203, (R)-2-fluoro-N-(8-methylisoquinolin-1-yl)-4-(3-methylpyrazin-2-yl)-N-(piperidin-3-yl)benzamide] was run?
Answer: 0.129 µM

Question: How did the IC50 turn out when `Cc1cccc2ccnc(N(C(=O)c3ccc(Nc4cccc(=O)[nH]4)cc3F)[C@@H]3CCCNC3)c12` [Example 292, (R)-2-fluoro-N-(8-methylisoquinolin-1-yl)-4-((6-oxo-1,6-dihydropyridin-2-yl)amino)-N-(piperidin-3-yl)benzamide] was run?
Answer: > 20 µM

Question: With `Cc1cccc2ccnc(N(C(=O)N3CCN(c4nncc5ccccc45)CC3)[C@@H]3CCCNC3)c12` [Example 270] as the compound, how does the IC50 read?
Answer: 2 µM

Question: With `Cn1cnc2ccnc(N(C(=O)c3ccc(-n4nnc5cccnc54)cc3F)[C@@H]3CCCNC3)c21` [Example 248, (R)-4-(3H-[1,2,3]triazolo[4,5-b]pyridin-3-yl)-2-fluoro-N-(3-methyl-3H-imidazo[4,5-c]pyridin-4-yl)-N-(piperidin-3-yl)benzamide] as the compound, how does the IC50 read?
Answer: 0.851 µM
